Like-named read-outs stand apart in the source and are kept apart here.
Experiments:
[1] = system: greenhouse red spider mite (Tetranychus urticae); test: Tetranychus urticae spray test, OP-resistant (bean leaf discs); format: in vivo; conditions: after 6 days; for pest or weed control at 500 g/ha: Tetranychus urticae, foliar, 144 h, read-out: efficacy (spider mites killed)
Protocol: Tetranychus urticae—Spray Test, OP-Resistant
Solvent: 78.0 parts by weight of acetone • • 1.5 parts by weight of dimethylformamide
Emulsifier: alkylaryl polyglycol ether
To produce an appropriate active ingredient formulation, 1 part by weight of active ingredient is dissolved using the specified parts by weight of solvent and made up with water containing an emulsifier concentration of 1000 ppm until the desired concentration is attained. To produce further test concentrations, the preparation is diluted with emulsifier-containing water.
Discs of bean leaves (Phaseolus vulgaris) infested by all stages of the greenhouse red spider mite (Tetranychus urticae) are sprayed with an active ingredient formulation of the desired concentration.
After 6 days, the efficacy in % is determined. 100% means that all the spider mites have been killed; 0% means that none of the spider mites have been killed.

[2] = system: southern root-knot nematode (Meloidogyne incognita); test: Meloidogyne incognita test (sand, lettuce, acetone solvent, 14 days); format: in vivo; conditions: application rate 20 ppm, after 14 days; for pest or weed control at 20 ppm: Meloidogyne incognita, 336 h, read-out: nematicidal efficacy (formation of galls)
Protocol: Meloidogyne incognita Test
Solvent: 125.0 parts by weight of acetone
To produce an appropriate active ingredient formulation, 1 part by weight of active ingredient is mixed with the stated amount of solvent and the concentrate is diluted with water to the desired concentration.
Vessels are filled with sand, active ingredient solution, an egg/larvae suspension of the southern root-knot nematode (Meloidogyne incognita) and lettuce seeds. The lettuce seeds germinate and the plants develop. The galls develop on the roots
After 14 days, the nematicidal efficacy in % is determined by the formation of galls. 100% means that no galls were found; 0% means that the number of galls on the treated plants corresponds to the untreated control.

[3] = log P by reversed-phase HPLC analogously to OECD Guideline 117; format: physicochemical; conditions: for chromatographic logP: reversed-phase C18 HPLC column
Protocol: The log P values were determined analogously to OECD Guideline 117 (EC Directive 92/69/EEC) by HPLC (high-performance liquid chromatography) using reversed-phase columns (C 18), by the following methods:
[a] LC-MS determination in the acidic range is effected at pH 2.7 with 0.1% aqueous formic acid and acetonitrile (containing 0.1% formic acid) as eluents with a linear gradient from 10% acetonitrile to 95% acetonitrile; or with 0.025% aqueous trifluoroacetic acid and acetonitrile (containing 0.025% trifluoroacetic acid) as eluents with a linear gradient from 50% acetonitrile to 80% acetonitrile.
[b] LC-MS determination in the neutral range is effected at pH 7.8 with 0.001 molar aqueous ammonium hydrogencarbonate solution and acetonitrile as eluents; linear gradient from 10% acetonitrile to 95% acetonitrile.
Calibration is effected with solutions of a homologous series of unbranched alkan-2-ones (having 3 to 16 carbon atoms) with known log P values (log P values determined on the basis of the retention times by linear interpolation between two successive alkanones).

[4] = [a] acidic range, pH 2.7, formic acid (or trifluoroacetic acid)/acetonitrile
[5] = [b] neutral range, pH 7.8, ammonium hydrogencarbonate/acetonitrile
[6] = pH 2.7, running text, [a] acidic range, pH 2.7, read-out: log P[a]
[7] = pH 2.7, table column, [a] acidic range, pH 2.7, formic acid (or trifluoroacetic acid)/acetonitrile, read-out: LogP[a]
[8] = pH 7.8, running text, [b] neutral range, pH 7.8, read-out: log P[b]
[9] = pH 7.8, table column, [b] neutral range, pH 7.8, ammonium hydrogencarbonate/acetonitrile, read-out: LogP[b]

SMILES	efficacy (spider mites killed) ([1]; application rate 500 g/ha) [%]	nematicidal efficacy (formation of galls) [2] [%]	LogP[a] [3, 4]	LogP[b] [3, 5]	efficacy (spider mites killed) ([1]; application rate 100 g/ha) [%]	pest or weed control at 500 g/ha ([1]; application rate 500 g/ha) [%]	pest or weed control at 20 ppm [2] [%]	chromatographic logP [3, 6]	chromatographic logP [3, 7]	chromatographic logP [3, 8]	chromatographic logP [3, 9]	efficacy (spider mites killed) ([1]; application rate 20 g/ha) [%]
Cc1cc(F)c(-n2ccc(=O)n(CC3CC3)c2=O)cc1[S+]([O-])CC(F)(F)F (racemic) [compound 62]	90	100	2.29	2.37	–	–	–	–	–	–	–	–
Cc1cc(F)c(-n2ccc(=O)n(C(C)C)c2=O)cc1[S+]([O-])CC(F)(F)F (racemic) [compound 63]	90	100	2.22	2.31	–	–	–	–	–	–	–	–
Cc1cc(F)c(-n2ccc(=O)n(Cc3ccc(F)cc3)c2=O)cc1[S+]([O-])CC(F)(F)F (racemic) [compound 64]	–	100	2.68	2.77	90	–	–	–	–	–	–	–
C=CCn1c(=O)ccn(-c2cc([S+]([O-])CC(F)(F)F)c(C)cc2F)c1=O (racemic) [compound 65]	–	100	2.01	2.08	90	–	–	–	–	–	–	–
Cc1cc(F)c(-n2ccc(=O)n(C)c2=O)cc1SCC(F)(F)F [Ex. No. 53, 1-{2-Fluoro-4-methyl-5-[(2,2,2-trifluoroethyl)sulphanyl]phenyl}-3-methylpyrimidine-2,4(1H,3H)-dione]	–	–	–	–	–	90	100	2.59	2.53	2.53	2.59	–
Cc1cc(F)c(-n2ccc(=O)[nH]c2=O)cc1[S+]([O-])CC(F)(F)F (stereo not shown) [Ex. No. 56, 1-{2-Fluoro-4-methyl-5-[(2,2,2-trifluoroethyl)sulphinyl]phenyl}pyrimidine-2,4(1H,3H)-dione]	–	–	–	–	–	100	90	1.3	1.24	1.24	1.3	–
Cc1ccc(-n2ccc(=O)n(C)c2=O)cc1SCC(F)(F)F [Ex. No. 58, 3-Methyl-1-{4-methyl-3-[(2,2,2-trifluoroethyl)sulphanyl]phenyl}pyrimidine-2,4(1H,3H)-dione]	–	–	–	–	–	90	100	2.48	2.39	2.39	2.48	–
CCn1c(=O)ccn(-c2cc([S+]([O-])CC(F)(F)F)c(C)cc2F)c1=O (stereo not shown) [Ex. No. 59, 3-Ethyl-1-{2-fluoro-4-methyl-5-[(2,2,2-trifluoroethyl)sulphinyl]phenyl}pyrimidine-2,4(1H,3H)-dione]	–	–	–	–	–	90	100	1.94	1.88	1.88	1.94	–
CCn1c(=O)ccn(-c2cc(SCC(F)(F)F)c(C)cc2F)c1=O [Ex. No. 71, 3-Ethyl-1-{2-fluoro-4-methyl-5-[(2,2,2-trifluoroethyl)sulphanyl]phenyl}pyrimidine-2,4(1H,3H)-dione]	–	–	–	–	–	90	100	2.93	2.86	2.86	2.93	–
O=c1cnn(-c2cc(SCC(F)(F)F)c(Cl)cc2Cl)c(=O)n1CC(F)(F)F [compound 12]	90	90	3.93	–	–	–	–	–	–	–	–	–
Cn1c(=O)cnn(-c2cc(SCC(F)(F)F)c(Cl)cc2Cl)c1=O [compound 14]	100	90	3.31	–	–	–	–	–	–	–	–	–
Cc1cc(F)c(-n2ncc(=O)n(CC#N)c2=O)cc1SCC(F)(F)F [compound 39]	100	90	2.96	2.9	–	–	–	–	–	–	–	–
C#CCn1c(=O)ccn(-c2cc([S+]([O-])CC(F)(F)F)c(C)cc2F)c1=O (stereo not shown) [compound 67]	–	100	1.86	1.92	–	–	–	–	–	–	–	90
COCn1c(=O)ccn(-c2cc([S+]([O-])CC(F)(F)F)c(C)cc2F)c1=O (stereo not shown) [compound 68]	90	100	1.67	1.74	–	–	–	–	–	–	–	–
Cc1cc(F)c(-n2ccc(=O)n(CC(F)F)c2=O)cc1[S+]([O-])CC(F)(F)F (stereo not shown) [compound 70]	90	100	2.06	2.11	–	–	–	–	–	–	–	–
Cc1cc(F)c(-n2ccc(=O)n(CC(F)(F)F)c2=O)cc1SCC(F)(F)F [compound 72]	90	100	3.16	3.29	–	–	–	–	–	–	–	–
Cc1cc(F)c(-n2ccc(=O)n(CC#N)c2=O)cc1SCC(F)(F)F [compound 73]	90	100	2.62	2.65	–	–	–	–	–	–	–	–
Cc1cc(F)c(-n2ccc(=O)n(CC3CC3)c2=O)cc1SCC(F)(F)F [compound 74]	90	100	3.24	3.38	–	–	–	–	–	–	–	–
Cc1cc(F)c(-n2ccc(=O)n(C(C)C)c2=O)cc1SCC(F)(F)F [compound 75]	–	100	3.21	3.35	90	–	–	–	–	–	–	–
Cc1cc(F)c(-n2ccc(=O)n(Cc3ccc(F)cc3)c2=O)cc1SCC(F)(F)F [compound 76]	90	100	3.56	3.74	–	–	–	–	–	–	–	–
C=CCn1c(=O)ccn(-c2cc(SCC(F)(F)F)c(C)cc2F)c1=O [compound 77]	90	100	3.08	3.06	–	–	–	–	–	–	–	–
CCCn1c(=O)ccn(-c2cc(SCC(F)(F)F)c(C)cc2F)c1=O [compound 78]	90	100	3.13	3.27	–	–	–	–	–	–	–	–
Cc1ccc(-n2ccc(=O)n(CC(F)(F)F)c2=O)cc1SCC(F)(F)F [compound 84]	100	100	3.16	3.15	–	–	–	–	–	–	–	–
Cc1ccc(-n2ccc(=O)n(CC#N)c2=O)cc1SCC(F)(F)F [compound 85]	100	90	2.55	2.62	–	–	–	–	–	–	–	–
Cc1ccc(-n2ccc(=O)n(CC3CC3)c2=O)cc1SCC(F)(F)F [compound 86]	100	90	3.21	3.31	–	–	–	–	–	–	–	–
Cc1ccc(-n2ccc(=O)n(C(C)C)c2=O)cc1SCC(F)(F)F [compound 87]	100	90	3.18	3.25	–	–	–	–	–	–	–	–
Cc1ccc(-n2ccc(=O)n(CC(F)(F)F)c2=O)cc1[S+]([O-])CC(F)(F)F (stereo not shown) [compound 90]	100	100	2.18	2.21	–	–	–	–	–	–	–	–
Cc1cc(C)c(-n2ccc(=O)n(C)c2=O)cc1SCC(F)(F)F [compound 92]	90	90	2.66	2.72	–	–	–	–	–	–	–	–
Cc1cc(C)c([S+]([O-])CC(F)(F)F)cc1-n1ccc(=O)n(CC(F)(F)F)c1=O (stereo not shown) [compound 95]	100	100	2.40	2.44	–	–	–	–	–	–	–	–

From US9783509B2, “Six-membered C-N-linked aryl sulfide derivatives and aryl sulfoxide derivatives as pest conrol agents” (BAYER CROPSCIENCE AKTIENGESELLSCHAFT, priority 2013, dated 2017)
